# Patent US20100184802A1, “Bicycloheteroaryl Compounds as P2X7 Modulators and Uses Thereof” (priority 2006, published 2010)
# What was measured:
# [1] = biological target: T1, P2X7 receptor (IL-1β release from THP-1 cells) (Homo sapiens, UniProt Q99572); assay: IL-1β release assay in differentiated THP-1 cells stimulated with BzATP (Example 9); assay type: cell-based; details: for inhibition at 0.3 µM: 0.3 μM concentration; for inhibition at 0.3 µM / inhibition at 0.1 µM: BzATP 250 uM, read-out: IL-1β % Inhib. @ 0.3 or 0.1 μM; for IC50: released IL-1β as in Example 9, four parameter logistic fit; for inhibition at 0.1 µM: 0.1 μM concentration
# T1 construct: host or cells: THP-1 cells differentiated with LPS and IFN-γ
# T1 sequence (Q99572 1-595): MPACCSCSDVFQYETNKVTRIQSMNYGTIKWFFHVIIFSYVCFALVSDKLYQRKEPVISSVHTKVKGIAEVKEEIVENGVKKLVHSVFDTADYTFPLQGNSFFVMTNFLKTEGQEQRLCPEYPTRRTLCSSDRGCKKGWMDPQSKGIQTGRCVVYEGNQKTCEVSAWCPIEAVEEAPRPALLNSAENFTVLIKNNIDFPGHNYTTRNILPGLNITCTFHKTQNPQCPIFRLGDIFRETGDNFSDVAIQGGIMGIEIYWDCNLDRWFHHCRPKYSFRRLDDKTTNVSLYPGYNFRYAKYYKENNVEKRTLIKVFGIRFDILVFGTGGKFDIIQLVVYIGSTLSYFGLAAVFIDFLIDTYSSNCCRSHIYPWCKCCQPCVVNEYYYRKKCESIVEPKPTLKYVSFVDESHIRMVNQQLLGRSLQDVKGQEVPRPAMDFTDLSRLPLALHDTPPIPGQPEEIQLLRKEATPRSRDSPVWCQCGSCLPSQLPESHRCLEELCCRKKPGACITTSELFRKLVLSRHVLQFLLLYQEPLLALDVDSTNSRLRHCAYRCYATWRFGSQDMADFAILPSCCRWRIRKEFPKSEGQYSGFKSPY
# Experimental: The cells are then pretreated for 30 minutes with the compound of interest at the appropriate concentration in RPMI media containing 100 IU/mL penicillin, 100 ug/mL streptomycin. […] 30 uL of cell supernatant is then collected and IL-1β levels determined via ELISA (R&D systems Cat. #HSLB50) according to manufacturer's recommendations using the Tecan Safire plate reader. Background adjusted IL-1β levels of drug treated and non-treated cells are used to calculate the percent inhibition.
# The compounds set forth in Table 1 were tested for activity in a cellular model as described herein. […] Measurements were made and IC50 values, presented in Table 2, below, were determined by fitting the data to a four parameter logistic equation using GraphPad Prism software (GraphPad Software, Inc). The equation may be expressed by the following formula:
# Y=Bottom+(Top−Bottom)/(1+10̂((Log EC50−X)*HillSlope))
# Where X is the logarithm of concentration, Y is the response and Y starts at Bottom and goes to Top with a sigmoid shape.
# [2] = Half-life in human liver microsomes (HLM); assay type: in vitro ADME; details: human liver microsomes (HLM, HL101); human liver microsomes 0.78 mg/mL, 1 μM compound, NADPH, pH 7.4, 37° C.
# Experimental: Test compounds (1 μM) are incubated with 3.3 mM MgCl2 and 0.78 mg/mL HLM (HL101) in 100 mM potassium phosphate buffer (pH 7.4) at 37° C. on the 96-deep well plate. The reaction mixture is split into two groups, a non-P450 and a P450 group. NADPH is only added to the reaction mixture of the P450 group. An aliquot of samples of P450 group is collected at 0, 10, 30, and 60 min time point, where 0 min time point indicated the time when NADPH is added into the reaction mixture of P450 group. […] Collected aliquots are extracted with acetonitrile solution containing an internal standard. […] The compound concentration in supernatant is measured by LC/MS/MS system.
# The half-life value is obtained by plotting the natural logarithm of the peak area ratio of compounds/internal standard versus time. The slope of the line of best fit through the points yields the rate of metabolism (k). This is converted to a half-life value using following equations:
SMILES,inhibition at 0.3 µM [1] [%],IC50 [1] [nM],half-life at 1 μM [2] [min],inhibition at 0.1 µM [1] [%]
O=C(CC12CC3CC(CC(C3)C1)C2)Nc1cccc2c1CCN(CC1CCNCC1)C2=O [Compound 512],> 76,7.62,44.4,
C[C@H](CO)n1ccc2c(NC(=O)CC34CC5CC(CC(C5)C3)C4)cccc2c1=O [Compound 522],> 76,1.81,28.8,
CC(C)(O)Cn1ccc2c(NC(=O)C3C[C@@H]4CC[C@H]3C4)cccc2c1=O (stereo partly drawn) [Compound 571],,,,26 to 50
C[C@H](C(N)=O)n1ccc2c(NC(=O)CC34CC5CC(CC(O)(C5)C3)C4)cccc2c1=O [Compound 581],> 76,48.2,,
CC(O)Cn1ccc2c(NC(=O)C3C[C@@H]4CC[C@H]3C4)cccc2c1=O (stereo partly drawn) [Compound 567],,,,26 to 50
NC(=O)CN1CCc2c(NC(=O)CC34CC5CC(CC(C5)C3)C4)cccc2C1=O [Compound 533],> 76,4.79,,
C[C@H](CO)n1ccc2c(NC(=O)CC34CC5CC(C)(CC(C)(C5)C3)C4)cccc2c1=O [Compound 525],> 76,3.23,,
"C[C@H](C(=O)O)n1ccc2c(NC(=O)CC3CCCCCC3)cccc2c1=O [Compound 607, (R)-2-[5-(2-Cycloheptyl-acetylamino)-1-oxo-1H-isoquinolin-2-yl]-propionic acid]",> 76,92.1,,
CC(C)(O)Cn1ccc2c(NC(=O)CC3C[C@@H]4CC[C@H]3C4)cccc2c1=O (stereo partly drawn) [Compound 569],,,,26 to 50
O=C(CC1CCCCC1)Nc1cccc2c(=O)n(CCO)ccc12 [Compound 545],0 to 25,906,,
"NC(=O)Cn1ccc2c(NC(=O)CC3CCCCCC3)cccc2c1=O [Compound 561, 2-(5-(2-Cycloheptyl-acetylamino)-1-oxo-1H-isoquinolin-2-yl)-acetamide]",> 76,38.2,,
CC(O)Cn1ccc2c(NC(=O)CC3C[C@@H]4CC[C@H]3C4)cccc2c1=O (stereo partly drawn) [Compound 564],,,,51 to 75
"C[C@H](C(=O)NC1CC1)n1ccc2c(NC(=O)CC34CC5CC(CC(C5)C3)C4)cccc2c1=O [Compound 598, (R)-2-[5-(2-Adamantan-1-yl-acetyl-amino)-1-oxo-1H-isoquinolin-2-yl]-N-cyclopropyl-propionamide]",> 76,0.698,,
CC(O)Cn1ccc2c(NC(=O)[C@H]3CC[C@H](C)CC3)cccc2c1=O (stereo partly drawn) [Compound 563],,,,0 to 25
"CC(CO)n1ccc2c(NC(=O)CC34CC5CC(CC(C5)C3)C4)cccc2c1=O (stereo not drawn) [Compound 517, 2-Adamantan-1-yl-N-[2-(2-hydroxy-1-methyl-ethyl)-1-oxo-1,2-dihydro-isoquinolin-5-yl]-acetamide]",> 76,0.33,26.4,
C[C@@H](CO)n1ccc2c(NC(=O)CC34CC5CC(C)(CC(C)(C5)C3)C4)cccc2c1=O [Compound 524],> 76,0.204,,
CC(C)[C@H](C(=O)O)n1ccc2c(NC(=O)CC34CC5CC(CC(C5)C3)C4)cccc2c1=O [Compound 603],> 76,22,,
"CC1(C)CC(CC(=O)Nc2cccc3c(=O)n(CCO)ccc23)CC(C)(C)C1 [Compound 584, N-[2-(2-Hydroxy-ethyl)-1-oxo-1,2-dihydro-isoquinolin-5-yl]-2-(3,3,5,5-tetramethylcyclohexyl)-acetamide]",> 76,1.8,,
C[C@H]1CC[C@H](C(=O)Nc2cccc3c(=O)n(CC4(O)CCCCC4)ccc23)CC1 [Compound 539],,,,0 to 25
NC(=O)[C@H](Cc1ccccc1)n1ccc2c(NC(=O)CC34CC5CC(CC(C5)C3)C4)cccc2c1=O [Compound 502],,,,51 to 75

SMILES,inhibition at 0.3 µM [1] [%],IC50 [1] [nM],half-life at 1 μM [2] [min],inhibition at 0.1 µM [1] [%]
O=C(CC1CCCCCC1)Nc1cccc2c(=O)n(C[C@H]3CCCN3)ccc12 [Compound 576],> 76,,,
C[C@H](C(N)=O)n1ccc2c(NC(=O)[C@H](C)C3CCCCCC3)cccc2c1=O [Compound 608],> 76,70.8,,
CC(C)(C)OC(=O)N1CCC(CC(=O)Nc2cccc3c(=O)n(CCO)ccc23)CC1 [Compound 532],0 to 25,> 1000,,
CC(C)(CO)n1ccc2c(NC(=O)CC3CCCCCC3)cccc2c1=O [Compound 614],> 76,91.4,,
CC(C)(O)Cn1ccc2c(NC(=O)[C@@]34C[C@@H]5C[C@@H](C[C@@H]3C5)C4)cccc2c1=O [Compound 570],,,,0 to 25
CC(C)C[C@H](CO)n1ccc2c(NC(=O)CC3(O)CCCCCC3)cccc2c1=O [Compound 596],> 76,5.59,,
CC(C)[C@H](C(=O)O)n1ccc2c(NC(=O)CC3CCCCCC3)cccc2c1=O [Compound 610],> 76,44.7,,
C[C@@H](CO)n1ccc2c(NC(=O)CC34CC5CC(CC(C5)C3)C4)cccc2c1=O [Compound 521],> 76,0.315,,
C[C@@H](CO)N1CCc2c(NC(=O)CC34CC5CC(CC(C5)C3)C4)cccc2C1=O [Compound 527],> 76,0.149,,
CC(O)Cn1ccc2c(NC(=O)C34C[C@@H]5C[C@@H](C[C@@H]3C5)C4)cccc2c1=O (stereo partly drawn) [Compound 566],,,,0 to 25
NC(=O)Cn1ccc2c(NC(=O)CC34CC5CC(CC(C5)C3)C4)cccc2c1=O [Compound 509],> 76,0.271,,
O=C(CC12CC3CC(CC(C3)C1)C2)Nc1cccc2c(=O)n(CCO)ccc12 [Compound 511],> 76,1.34,27,
"CC(C)C(CO)n1ccc2c(NC(=O)CC34CC5CC(CC(C5)C3)C4)cccc2c1=O (stereo not drawn) [Compound 516, 2-Adamantan-1-yl-N-[2-(1-hydroxymethyl-2-methyl-propyl)-1-oxo-1,2-dihydro-isoquinolin-5-yl]-acetamide]",> 76,0.049,,
O=C(CC12CC3CC(CC(C3)C1)C2)Nc1cccc2c(=O)n(C(CO)Cc3c[nH]cn3)ccc12 (stereo not drawn) [Compound 515],> 76,1.3,91.2,
"CC(C)C[C@H](CO)n1ccc2c(NC(=O)CC34CC5CC(CC(C5)C3)C4)cccc2c1=O [Compound 585, 2-Adamantan-1-yl-N-[2-((R)-1-hydroxymethyl-3-methyl-butyl)-1-oxo-1,2-dihydro-isoquinolin-5-yl]-acetamide]",> 76,1.38,,
"CC(C)[C@H](C(=O)NC1CC1)n1ccc2c(NC(=O)CC3CCCCCC3)cccc2c1=O [Compound 595, (R)-2-[5-(2-Cycloheptyl-acetylamino)-1-oxo-1H-isoquinolin-2-yl]-N-cyclopropyl-3-methyl-butyramide]",> 76,20.7,,
CC12CC3CC(C)(C1)CC(CC(=O)Nc1cccc4c(=O)n(C(CO)CO)ccc14)(C3)C2 [Compound 519],> 76,0.11,42.6,
CC1CNC(CN2CCc3c(NC(=O)CC45CC6CC(CC(C6)C4)C5)cccc3C2=O)CN1 (stereo not drawn) [Compound 503],,,,> 76
CC1(C)CCCC(O)(CC(=O)Nc2cccc3c(=O)n(CCO)ccc23)C1 (stereo not drawn) [Compound 547],51 to 75,287,,
C[C@@H](C(N)=O)n1ccc2c(NC(=O)CC3CCCCCC3)cccc2c1=O [Compound 554],> 76,12.3,,
